Where two headings read alike, the source gives them in different places.
Experiments:
R2 cells = assay: Growth inhibition of R2 subline (MTX-transport deficient); assay type: cell-based; conditions: Homo sapiens; Table 8; continuous (0-120 hours) exposure; read-out: Growth inhibition EC50, R2
HOP-62 = assay type: cell-based; conditions: Homo sapiens; HOP-62, Non-Small Cell Lung Cancer
NCI-H522 = assay type: cell-based
Pc DHFR = target: T1, Pc DHFR (Pneumocystis carinii, UniProt P16184); assay: biochemical
T1 sequence (P16184 1-206): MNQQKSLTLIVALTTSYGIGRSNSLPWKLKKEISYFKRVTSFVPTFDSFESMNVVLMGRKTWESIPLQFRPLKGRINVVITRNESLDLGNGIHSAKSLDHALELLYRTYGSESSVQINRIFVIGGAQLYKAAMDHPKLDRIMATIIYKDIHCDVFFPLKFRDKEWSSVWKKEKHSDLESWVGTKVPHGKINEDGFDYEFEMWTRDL

SK-MEL-2 = assay: NCI in vitro anti-cancer activity, Melanoma; assay type: cell-based
BT-549 = assay: NCI in vitro anti-cancer activity, Breast Cancer; assay type: cell-based
PC-3 = assay: NCI in vitro anti-cancer activity, Prostate Cancer; assay type: cell-based
MALME-3M = assay: NCI in vitro anti-cancer activity, Melanoma; assay type: cell-based
R30dm cells = assay: Growth inhibition of R30dm subline (decreased polyglutamate synthase); assay type: cell-based; conditions: Homo sapiens, Table 8, continuous (0-120 hours) exposure, read-out: Growth inhibition EC50, R30dm
MCF7 = assay: NCI in vitro anti-cancer activity, Breast Cancer; assay type: cell-based
TK-10 = assay: NCI in vitro anti-cancer activity, Renal Cancer; assay type: cell-based
A549/ATCC = assay type: cell-based
UO-31 = assay: NCI in vitro anti-cancer activity, Renal Cancer; assay type: cell-based
SF-268 = assay: NCI in vitro anti-cancer activity, CNS Cancer; assay type: cell-based
MDA-MB-435 = assay: NCI in vitro anti-cancer activity, Breast Cancer; assay type: cell-based
SF-539 = assay: NCI in vitro anti-cancer activity, CNS Cancer; assay type: cell-based
MDA-N = assay: NCI in vitro anti-cancer activity, Breast Cancer; assay type: cell-based
HOP-92 = assay type: cell-based
T-47D = assay: NCI in vitro anti-cancer activity, Breast Cancer; assay type: cell-based
HCT-15 = assay: NCI in vitro anti-cancer activity, Colon Cancer; assay type: cell-based
UACC-62 = assay: NCI in vitro anti-cancer activity, Melanoma; assay type: cell-based
OVCAR-3 = assay: NCI in vitro anti-cancer activity, Ovarian Cancer; assay type: cell-based
OVCAR-8 = assay: NCI in vitro anti-cancer activity, Ovarian Cancer; assay type: cell-based
A253 = assay: Growth inhibition of A253 human squamous carcinoma cell line; assay type: cell-based; conditions: Table 9, continuous (120 hours) exposure
Method: The performance of these compounds was evaluated against MTX.

HT29 = assay: NCI in vitro anti-cancer activity, Colon Cancer; assay type: cell-based
ACHN = assay: NCI in vitro anti-cancer activity, Renal Cancer; assay type: cell-based
CCRF-CEM = assay: NCI in vitro anti-cancer activity, Leukemia; assay type: cell-based; conditions: Table 29, Leukemia
RPMI-8226 = assay: NCI in vitro anti-cancer activity, Leukemia; assay type: cell-based; conditions: Table 29, Leukemia
NCI-H460 = assay type: cell-based; conditions: Table 29, Non-Small Cell Lung Cancer
SK-MEL-5 = assay: NCI in vitro anti-cancer activity, Melanoma; assay type: cell-based; conditions: Table 29, Melanoma
MOLT-4 = assay: NCI in vitro anti-cancer activity, Leukemia; assay type: cell-based; conditions: Table 29, Leukemia
K-562 = assay: NCI in vitro anti-cancer activity; conditions: Table 29, Leukemia
Text: (§1) The compounds identified below were further tested for their in vitro anti-cancer activity by the National Cancer Institute.

NCI/ADR-RES = assay: NCI in vitro anti-cancer activity, breast cancer; conditions: Table 29, Breast Cancer, NCI/ADRRES
Text: as §1

UACC-257 = assay: NCI in vitro anti-cancer activity, Melanoma; assay type: cell-based; conditions: Table 29, Melanoma
[1] = Table 29, Non-Small Cell Lung Cancer, NCI-H522
[2] = Table 29, Breast Cancer, BT-549
[3] = Table 29, Prostate Cancer, PC-3
[4] = Table 29, Non-Small Cell Lung Cancer
[5] = Table 29, Non-Small Cell Lung Cancer, HOP-92
[6] = Table 29, Ovarian Cancer, OVCAR-3
[7] = Table 29, Ovarian Cancer, OVCAR-8

For `Nc1nc(N)c2c(CNc3ccc(C(=O)N[C@@H](CCC(=O)O)C(=O)O)cc3)c[nH]c2n1` [Compound 9], the EC50 (R2 cells) was 1.65 ± 0.2 µM, the GI50 (HOP-62) was less than 0.01 µM and the GI50 (NCI-H522; Homo sapiens, NCI-H522, Non-Small Cell Lung Cancer) was greater than 100 µM. It also gave an IC50 (Pc DHFR) of 0.038 µM, a GI50 (SK-MEL-2; Homo sapiens, SK-MEL-2, Melanoma) greater than 100 µM and a GI50 (BT-549; Homo sapiens, BT-549, Breast Cancer) greater than 100 µM. The GI50 (PC-3; Homo sapiens, PC-3, Prostate Cancer) was greater than 100 µM, the GI50 (MALME-3M; Homo sapiens, Melanoma) was less than 0.01 µM and the EC50 (R30dm cells) was 0.036 ± 0.001 µM. The GI50 (MCF7; Homo sapiens, MCF7, Breast Cancer) was less than 0.01 µM, the GI50 (TK-10; Homo sapiens, TK-10, Renal Cancer) was greater than 100 µM and the GI50 (A549/ATCC; Homo sapiens, Non-Small Cell Lung Cancer) was less than 0.01 µM. The GI50 (UO-31; Homo sapiens, UO-31, Renal Cancer) was less than 0.01 µM, the GI50 (SF-268; Homo sapiens, SF-268, CNS Cancer) was less than 0.01 µM and the GI50 (MDA-MB-435; Homo sapiens) was 0.687 µM. It also gave a GI50 (SF-539; Homo sapiens) of less than 0.01 µM, a GI50 (MDA-N; Homo sapiens, Breast Cancer) of less than 0.01 µM and a GI50 (HOP-92; Homo sapiens, HOP-92, Non-Small Cell Lung Cancer) of 8.4 µM. The GI50 (T-47D; Homo sapiens, T47D, Breast Cancer) was greater than 100 µM, the GI50 (HCT-15; Homo sapiens, HCT-15, Colon Cancer) was less than 0.01 µM and the GI50 (UACC-62; Homo sapiens, UACC-62, Melanoma) was less than 0.01 µM. The GI50 (OVCAR-3; Homo sapiens, OVCAR-3, Ovarian Cancer) was greater than 100 µM, the GI50 (OVCAR-8; Homo sapiens, OVCAR-8, Ovarian Cancer) was less than 0.01 µM and the EC50 (A253) was 0.046 ± 0.004 µM. The GI50 (HT29; Homo sapiens, HT-29, HT29, Colon Cancer) was less than 0.01 µM and the GI50 (ACHN; Homo sapiens, Renal Cancer) was less than 0.01 µM.
In the case of `COc1ccc(CCc2cn(Cc3ccccc3)c3nc(N)nc(C)c23)cc1` [Compound 113-118], the GI50 (CCRF-CEM) is reported as greater than 100 µM, the GI50 (NCI-H522; [1]) is reported as 29.1 µM and the “% inhibition Pc DHFR” value (Pc DHFR; @ 31 μM) is reported as 60% @. The GI50 (SK-MEL-2; Table 29, Melanoma, SK-MEL-2) was greater than 100 µM, the GI50 (BT-549; [2]) was 40.9 µM and the GI50 (PC-3; [3]) was 64 µM. For the same molecule, the GI50 (MALME-3M; Table 29, Melanoma) was 19.5 µM, the GI50 (MCF7; Table 29, Breast Cancer, MCF7) was 29.6 µM and the GI50 (RPMI-8226) was greater than 100 µM. It also gave a GI50 (TK-10; Table 29, Renal Cancer, TK-10) greater than 100 µM, a GI50 (A549/ATCC; [4]) of 99.8 µM and a GI50 (UO-31; Table 29, Renal Cancer, UO-31) greater than 100 µM. It also gave a GI50 (SF-268; Table 29, CNS Cancer, SF-268) greater than 100 µM, a GI50 (MDA-MB-435; Table 29, Breast Cancer) of 95.4 µM and a GI50 (SF-539; Table 29, CNS Cancer) of 30.2 µM. It also gave a GI50 (MDA-N; Table 29, Breast Cancer) of 78.3 µM, a GI50 (HOP-92; [5]) of 31 µM and a GI50 (HCT-15; Table 29, Colon Cancer, HCT-15) of 51.4 µM. For the same molecule, the GI50 (NCI-H460) was 42.5 µM, the GI50 (UACC-62; Table 29, Melanoma, UACC-62) was 80 µM and the GI50 (OVCAR-3; [6]) was greater than 100 µM. The GI50 (OVCAR-8; [7]) was 52.5 µM, the GI50 (HT29; Table 29, Colon Cancer, HT29) was 48.4 µM and the GI50 (ACHN; Table 29, Renal Cancer) was 34.8 µM.
In the case of `COc1ccccc1CCc1cn(Cc2ccccc2)c2nc(N)nc(C)c12` [Compound 113-148], the GI50 (CCRF-CEM) is reported as 2.97 µM, the GI50 (NCI-H522; [1]) is reported as 8.34 µM and the “% inhibition Pc DHFR” value (Pc DHFR; @ 85 μM) is reported as 45% @. It also gave a GI50 (SK-MEL-2; Table 29, Melanoma, SK-MEL-2) of 13.1 µM, a GI50 (BT-549; [2]) of 15.8 µM and a GI50 (SK-MEL-5) of 5.8 µM. For the same molecule, the GI50 (PC-3; [3]) was 9.47 µM, the GI50 (MALME-3M; Table 29, Melanoma) was 18.6 µM and the GI50 (MCF7; Table 29, Breast Cancer, MCF7) was 12.6 µM. It also gave a GI50 (TK-10; Table 29, Renal Cancer, TK-10) of 10.2 µM, a GI50 (MOLT-4) of 7.46 µM and a GI50 (A549/ATCC; [4]) of 6.46 µM. For the same molecule, the GI50 (UO-31; Table 29, Renal Cancer, UO-31) was 4.78 µM, the GI50 (K-562) was 5.91 µM and the GI50 (NCI/ADR-RES) was 6.75 µM. The GI50 (SF-268; Table 29, CNS Cancer, SF-268) was 11 µM, the GI50 (MDA-MB-435; Table 29, Breast Cancer) was 13 µM and the GI50 (SF-539; Table 29, CNS Cancer) was 7.2 µM. The GI50 (UACC-257) was 6.36 µM, the GI50 (MDA-N; Table 29, Breast Cancer) was 14.7 µM and the GI50 (HOP-92; [5]) was 16.3 µM. It also gave a GI50 (T-47D; Table 29, Breast Cancer) of 3.84 µM, a GI50 (NCI-H460) of 7.7 µM and a GI50 (UACC-62; Table 29, Melanoma, UACC-62) of 12.3 µM. For the same molecule, the GI50 (OVCAR-3; [6]) was 14.8 µM, the GI50 (OVCAR-8; [7]) was 17.6 µM and the GI50 (HT29; Table 29, Colon Cancer, HT29) was 4.77 µM. It also gave a GI50 (ACHN; Table 29, Renal Cancer) of 7.99 µM.
In the case of `COc1cc(CCc2c[nH]c3nc(N)nc(C)c23)cc(OC)c1OC` [Compound 113-154A], the GI50 (NCI-H522; [1]) is reported as 25 µM, the “Selectivity Ratio: RL DHFR/Pc DHFR” value (Pc DHFR; Table 26) is reported as 0.04 and the IC50 (Pc DHFR; Table 26, read-out: Inhibitory Concentrations (IC50) Pc DHFR) is reported as 55 µM. The GI50 (SK-MEL-2; Table 29, Melanoma, SK-MEL-2) was 98.3 µM, the GI50 (BT-549; [2]) was 19.3 µM and the GI50 (SK-MEL-5) was 37.3 µM. For the same molecule, the GI50 (PC-3; [3]) was 22.2 µM, the GI50 (MALME-3M; Table 29, Melanoma) was 47.4 µM and the GI50 (MCF7; Table 29, Breast Cancer, MCF7) was 27.2 µM. For the same molecule, the GI50 (RPMI-8226) was 67.4 µM, the GI50 (TK-10; Table 29, Renal Cancer, TK-10) was 58.9 µM and the GI50 (MOLT-4) was 38.7 µM. The GI50 (A549/ATCC; [4]) was 26.1 µM, the GI50 (UO-31; Table 29, Renal Cancer, UO-31) was 34 µM and the GI50 (K-562) was 23 µM. The GI50 (NCI/ADR-RES) was 25.9 µM, the GI50 (SF-268; Table 29, CNS Cancer, SF-268) was 39.5 µM and the GI50 (MDA-MB-435; Table 29, Breast Cancer) was 39.2 µM. The GI50 (SF-539; Table 29, CNS Cancer) was 20.4 µM, the GI50 (UACC-257) was 56.4 µM and the GI50 (MDA-N; Table 29, Breast Cancer) was 35.3 µM. The GI50 (HOP-92; [5]) was 18.2 µM, the GI50 (T-47D; Table 29, Breast Cancer) was 60.2 µM and the GI50 (HCT-15; Table 29, Colon Cancer, HCT-15) was 24.3 µM. For the same molecule, the GI50 (NCI-H460) was 19.3 µM, the GI50 (UACC-62; Table 29, Melanoma, UACC-62) was 19.6 µM and the GI50 (OVCAR-3; [6]) was 74.8 µM. The GI50 (OVCAR-8; [7]) was 31.1 µM, the GI50 (HT29; Table 29, Colon Cancer, HT29) was 10 µM and the GI50 (ACHN; Table 29, Renal Cancer) was 35.7 µM.

— patent US6962920B2, “Pyrimidine derivatives and methods of making and using these derivatives” (Duquesne University of the Holy Ghost, priority 1992, dated 2005)
